According to patent US10251395B2, “Substituted furano-/thienocycloalkylamino-2-pyrimidine derivatives and use thereof for controlling undesired plant growth” (Bayer CropScience Aktiengesellschaft, priority 2015, dated 2019):

Experiments:
Format in all cases: in vivo
Alopecurus myosuroides = test: Pre-emergence herbicidal effect; conditions: scored visually after 3 weeks
In short: (§1)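 Seeds sown in sandy loam in wood-fiber pots and covered with soil; WP or EC formulations applied to the soil surface as aqueous suspension or emulsion at 600 to 800 L/ha water with 0.2% wetting agent. Greenhouse, 3 weeks; damage scored visually versus untreated controls (100% = plants died, 0% = like control).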

Amaranthus retroflexus [1] = test: Pre-emergence herbicidal effect; conditions: scored visually after 3 weeks
In short: as §1

Cyperus esculentus = test: Pre-emergence herbicidal effect; conditions: Dosage 320 g/ha, scored visually after 3 weeks
In short: as §1

Echinochloa crus-galli [2] = test: Pre-emergence herbicidal effect; conditions: scored visually after 3 weeks
In short: as §1

Lolium multiflorum = test: Pre-emergence herbicidal effect; conditions: scored visually after 3 weeks
In short: as §1

Matricaria inodora [3] = test: Pre-emergence herbicidal effect; conditions: scored visually after 3 weeks
In short: as §1

Polygonum convolvulus [4] = test: Pre-emergence herbicidal effect; conditions: Dosage 320 g/ha, scored visually after 3 weeks
In short: as §1

Setaria viridis [5] = test: Pre-emergence herbicidal effect; conditions: scored visually after 3 weeks
In short: as §1

Stellaria media [6] = test: Pre-emergence herbicidal effect; conditions: scored visually after 3 weeks
In short: as §1

Veronica persica [7] = test: Pre-emergence herbicidal effect; conditions: scored visually after 3 weeks
In short: as §1

Viola tricolor [8] = test: Pre-emergence herbicidal effect; conditions: scored visually after 3 weeks
In short: as §1

Abutilon theophrasti = test: Post-emergence herbicidal effect; conditions: 320 g/ha, assessed visually after about 3 weeks vs untreated controls
In short: (§2)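 Action, expressed in percent from 0 (like controls) to 100 (plants died), is read by eye about 3 weeks after foliar application. Applications use formulated product in water at 600–800 L/ha on one-leaf-stage plants sown in sandy loam.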

Amaranthus retroflexus [9] = test: Post-emergence herbicidal effect; conditions: assessed visually after about 3 weeks vs untreated controls
In short: as §2

Echinochloa crus-galli [10] = test: Post-emergence herbicidal effect; conditions: 320 g/ha, assessed visually after about 3 weeks vs untreated controls
In short: as §2

Matricaria inodora [11] = test: Post-emergence herbicidal effect; conditions: assessed visually after about 3 weeks vs untreated controls
In short: as §2

Polygonum convolvulus [12] = test: Post-emergence herbicidal effect; conditions: 320 g/ha, assessed visually after about 3 weeks vs untreated controls
In short: as §2

Setaria viridis [13] = test: Post-emergence herbicidal effect; conditions: 320 g/ha, assessed visually after about 3 weeks vs untreated controls
In short: as §2

Stellaria media [14] = test: Post-emergence herbicidal effect; conditions: assessed visually after about 3 weeks vs untreated controls
In short: as §2

Veronica persica [15] = test: Post-emergence herbicidal effect; conditions: assessed visually after about 3 weeks vs untreated controls
In short: as §2

Viola tricolor [16] = test: Post-emergence herbicidal effect; conditions: assessed visually after about 3 weeks vs untreated controls
In short: as §2

Ipomoea purpurea = test: Post-emergence herbicidal effect; conditions: 320 g/ha, assessed visually after about 3 weeks vs untreated controls
In short: as §2

## Cc1cc2c(s1)CCCC2Nc1nc(N)c([S+](C)[O-])c(C(F)F)n1 (racemic) [compound 264]
Alopecurus myosuroides; Dosage 80 g/ha
  ALOMY pre-emergence efficacy (herbicidal activity): 60%
Alopecurus myosuroides; Dosage 320 g/ha
  ALOMY pre-emergence efficacy (herbicidal activity): 60%
Amaranthus retroflexus [1]; Dosage 80 g/ha
  AMARE pre-emergence efficacy (herbicidal activity): 100%
Amaranthus retroflexus [1]; Dosage 320 g/ha
  AMARE pre-emergence efficacy (herbicidal activity): 100%
Cyperus esculentus
  CYPES pre-emergence efficacy (herbicidal activity): 100%
Echinochloa crus-galli [2]; Dosage 320 g/ha
  ECHCG pre-emergence efficacy (herbicidal activity): 100%
Lolium multiflorum; Dosage 320 g/ha
  LOLMU pre-emergence efficacy (herbicidal activity): 60%
Matricaria inodora [3]; Dosage 80 g/ha
  MATIN pre-emergence efficacy (herbicidal activity): 90%
Matricaria inodora [3]; Dosage 320 g/ha
  MATIN pre-emergence efficacy (herbicidal activity): 100%
Polygonum convolvulus [4]
  POLCO pre-emergence efficacy (herbicidal activity): 100%
Setaria viridis [5]; Dosage 80 g/ha
  SETVI pre-emergence efficacy (herbicidal activity): 80%
Setaria viridis [5]; Dosage 320 g/ha
  SETVI pre-emergence efficacy (herbicidal activity): 90%
Stellaria media [6]; Dosage 80 g/ha
  STEME pre-emergence efficacy (herbicidal activity): 100%
Stellaria media [6]; Dosage 320 g/ha
  STEME pre-emergence efficacy (herbicidal activity): 100%
Veronica persica [7]; Dosage 80 g/ha
  VERPE pre-emergence efficacy (herbicidal activity): 100%
Veronica persica [7]; Dosage 320 g/ha
  VERPE pre-emergence efficacy (herbicidal activity): 100%
Viola tricolor [8]; Dosage 80 g/ha
  VIOTR pre-emergence efficacy (herbicidal activity): 100%
Viola tricolor [8]; Dosage 320 g/ha
  VIOTR pre-emergence efficacy (herbicidal activity): 100%
Abutilon theophrasti
  post-emergence efficacy ABUTH: 90%
Amaranthus retroflexus [9]; 80 g/ha
  post-emergence efficacy AMARE: 90%
Amaranthus retroflexus [9]; 320 g/ha
  post-emergence efficacy AMARE: 90%
Echinochloa crus-galli [10]
  post-emergence efficacy ECHCG: 90%
Matricaria inodora [11]; 80 g/ha
  post-emergence efficacy MATIN: 80%
Matricaria inodora [11]; 320 g/ha
  post-emergence efficacy MATIN: 90%
Polygonum convolvulus [12]
  post-emergence efficacy POLCO: 80%
Setaria viridis [13]
  post-emergence efficacy SETVI: 80%
Stellaria media [14]; 80 g/ha
  post-emergence efficacy STEME: 100%
Stellaria media [14]; 320 g/ha
  post-emergence efficacy STEME: 100%
Veronica persica [15]; 80 g/ha
  post-emergence efficacy VERPE: 90%
Veronica persica [15]; 320 g/ha
  post-emergence efficacy VERPE: 90%
Viola tricolor [16]; 80 g/ha
  post-emergence efficacy VIOTR: 90%
Viola tricolor [16]; 320 g/ha
  post-emergence efficacy VIOTR: 90%

## N#Cc1cc2c(s1)C(Nc1ncc(C(F)(F)F)c(N)n1)CCC2 (racemic) [compound 285]
Alopecurus myosuroides; Dosage 80 g/ha
  ALOMY pre-emergence efficacy (herbicidal activity): 50%
Alopecurus myosuroides; Dosage 320 g/ha
  ALOMY pre-emergence efficacy (herbicidal activity): 60%
Amaranthus retroflexus [1]; Dosage 80 g/ha
  AMARE pre-emergence efficacy (herbicidal activity): 100%
Amaranthus retroflexus [1]; Dosage 320 g/ha
  AMARE pre-emergence efficacy (herbicidal activity): 100%
Cyperus esculentus
  CYPES pre-emergence efficacy (herbicidal activity): 50%
Echinochloa crus-galli [2]; Dosage 80 g/ha
  ECHCG pre-emergence efficacy (herbicidal activity): 60%
Echinochloa crus-galli [2]; Dosage 320 g/ha
  ECHCG pre-emergence efficacy (herbicidal activity): 100%
Lolium multiflorum; Dosage 80 g/ha
  LOLMU pre-emergence efficacy (herbicidal activity): 80%
Lolium multiflorum; Dosage 320 g/ha
  LOLMU pre-emergence efficacy (herbicidal activity): 90%
Matricaria inodora [3]; Dosage 80 g/ha
  MATIN pre-emergence efficacy (herbicidal activity): 100%
Matricaria inodora [3]; Dosage 320 g/ha
  MATIN pre-emergence efficacy (herbicidal activity): 100%
Polygonum convolvulus [4]
  POLCO pre-emergence efficacy (herbicidal activity): 100%
Setaria viridis [5]; Dosage 80 g/ha
  SETVI pre-emergence efficacy (herbicidal activity): 70%
Setaria viridis [5]; Dosage 320 g/ha
  SETVI pre-emergence efficacy (herbicidal activity): 100%
Stellaria media [6]; Dosage 80 g/ha
  STEME pre-emergence efficacy (herbicidal activity): 100%
Stellaria media [6]; Dosage 320 g/ha
  STEME pre-emergence efficacy (herbicidal activity): 100%
Veronica persica [7]; Dosage 80 g/ha
  VERPE pre-emergence efficacy (herbicidal activity): 100%
Veronica persica [7]; Dosage 320 g/ha
  VERPE pre-emergence efficacy (herbicidal activity): 100%
Viola tricolor [8]; Dosage 80 g/ha
  VIOTR pre-emergence efficacy (herbicidal activity): 100%
Viola tricolor [8]; Dosage 320 g/ha
  VIOTR pre-emergence efficacy (herbicidal activity): 100%
Amaranthus retroflexus [9]; 80 g/ha
  post-emergence efficacy AMARE: 100%
Amaranthus retroflexus [9]; 320 g/ha
  post-emergence efficacy AMARE: 100%
Ipomoea purpurea
  post-emergence efficacy PHBPU: 60%
Matricaria inodora [11]; 320 g/ha
  post-emergence efficacy MATIN: 80%
Stellaria media [14]; 80 g/ha
  post-emergence efficacy STEME: 90%
Stellaria media [14]; 320 g/ha
  post-emergence efficacy STEME: 100%
Veronica persica [15]; 80 g/ha
  post-emergence efficacy VERPE: 60%
Veronica persica [15]; 320 g/ha
  post-emergence efficacy VERPE: 80%
Viola tricolor [16]; 80 g/ha
  post-emergence efficacy VIOTR: 80%
Viola tricolor [16]; 320 g/ha
  post-emergence efficacy VIOTR: 100%

## Cc1cc2c(s1)CCCC2Nc1nc(N)c(Br)c(C(C)(C)F)n1 (racemic) [compound 307]
Cyperus esculentus
  CYPES pre-emergence efficacy (herbicidal activity): 60%
Matricaria inodora [3]; Dosage 320 g/ha
  MATIN pre-emergence efficacy (herbicidal activity): 50%
Polygonum convolvulus [4]
  POLCO pre-emergence efficacy (herbicidal activity): 70%
Viola tricolor [8]; Dosage 320 g/ha
  VIOTR pre-emergence efficacy (herbicidal activity): 100%
